Molecules are shown by their SMILES.

In patent US20230219956A1 (BETTA PHARMACEUTICALS CO.,LTD, priority 2019, published 2023) one finds IC50 data, which are given here for 22 compounds.

One assay has as its system MIA-PACA-2 cells. Description: Cell proliferation assay, MIA-PACA-2 cells (Cell-titer Glo). Type of assay: cell-based. The conditions noted are these: Homo sapiens, 96 h incubation. The procedure: (§1) Pave the MIA-PACA-2 cells into a 96-well ultra-low adsorption plate at 600 cells, 160 μL/well. After incubating overnight, compound solutions of gradient concentration was prepared, and added 40 μL of DMSO solution of the test compound of each concentration to the cells of each well. The final concentration of the compound is 10000, 2000, 400, 80, 16, 3.2, 0.64, 0.12, 0.025, 0 nM (the final concentration of DMSO is 0.25%). Incubated for 96 h at 37° C. and 5% CO2. 50 μL of Cell-titer Glo working solution was added to each well, shaked and mixed, and incubated at room temperature for 10 minutes. The multi-functional microplate reader read the luminescence value, and converted the luminescence value reading into inhibition percentage.
(§2) Inhibition percentage=(maximum value−reading)/(maximum value−minimum value)*100.
(§3) The “maximum value” was the DMSO control, the “minimum value” indicates the cell-free control group.
(§4) Graphpad Prism software was used to perform curve fitting and obtain IC50 value.
Refer to Table 3 for the IC50 data of some compounds in the examples inhibiting MIA-PACA-2 cells.

Another assay concerns H358 cells. Description: Cell proliferation assay, H358 cells (Cell-titer Glo). The conditions noted are these: Homo sapiens, NCI-H358, 96 h incubation. The class given is cell-based. The procedure:
as §1, with “the H358” for “the MIA-PACA-2”, “cells on” for “cells into”, “plate with 2000 cells and 190” for “plate at 600 cells, 160”, “added 10” for “added 40”, “10000, 3333.3, 1111.1, 370.4, 123.5, 41.2, 13.7, 4.6, 1.5,” for “10000, 2000, 400, 80, 16, 3.2, 0.64, 0.12, 0.025,”
as §2, §3, §4
Refer to table 3 for the IC50 data of some compounds in the Examples for inhibiting H358 cells.

In the case of `C=CC(=O)N1CC2(CCN(c3nc(C4CCN(C)CC4)nc4c(OCC(F)F)c(-c5c(C)ccc6[nH]ncc56)c(Cl)cc34)CC2)C1` [Example 34], the IC50 was determined as 36.9 nM in the assay on MIA-PACA-2 cells and 39 nM with H358 cells.
As for `C=CC(=O)N1CC2(CCN(c3nc(C4CCN(C)CC4)nc4c(OCC(F)(F)F)c(-c5c(C)ccc6[nH]ncc56)c(C5CC5)cc34)CC2)C1` [Example 16], the IC50 in the assay on MIA-PACA-2 cells stood at 4.8 nM; with H358 cells it was 3.2 nM.
For `C=CC(=O)N1CC2(CCN(c3nc(C4CCN(C)CC4)nc4c(OCC(F)F)c(-c5c(C)ccc6[nH]ncc56)c(C5CC5)cc34)CC2)C1` [Example 24, 1-(7-(6-cyclopropyl-8-(2,2-difluoroethoxy)-7-(5-methyl-1H-indazol-4-yl)-2-(1-methylpiperidin-4-yl)quinazolin-4-yl)-2,7-diazaspiro[3.5]nonan-2-yl)prop-2-en-1-one], in that order: 14.5 nM and 17.7 nM.
For `C=CC(=O)N1CC2(CCN(c3nc(C4CCN(C5CC(O)C5)CC4)nc4c(OCC(F)(F)F)c(-c5c(C)ccc6[nH]ncc56)c(C=C)cc34)CC2)C1` (centres unmarked) [Example 80], in that order: 46.1 nM and 14.9 nM.
On the same counts, the results for `C=CC(=O)N1CC2(CCN(c3nc(C4CCN(C(=O)OC)CC4)nc4c(OCC(F)(F)F)c(-c5c(C)ccc6[nH]ncc56)c(C=C)cc34)CC2)C1` [Example 62, Methyl 4-(4-(2-acryloyl-2,7-diazspiro [3.5]nonan-7-yl)-7-(5-methyl-1H-indazole-4-yl)-8-(2,2,2-trifluoroethoxy)-6-vinylquinazolin-2-yl) piperidine-1-carboxylic acid] are 43.5 nM and 29.3 nM.
In the case of `C=CC(=O)N1CC2(CCN(c3nc(C4CCN(C)CC4)nc4c(OCC(F)F)c(-c5c(C)ccc6[nH]ncc56)c(C=C)cc34)CC2)C1` [Example 48, 1-(7-(8-(2,2-difluoroethoxy)-7-(5-methyl-1H-indazol-4-yl)-2-(1-methylpiperidin-4-yl)-6-vinylquinazolin-4-yl)-2,7-diazspiro [3.5]nonan-2-yl) propyl-2-en-1-one], the IC50 stood at 9.8 nM in the assay with MIA-PACA-2 cells and 11.5 nM in the assay on H358 cells.
Take `C=CC(=O)N1CC2(CCN(c3nc(C4CCN(CCO)CC4)nc4c(OCC(F)(F)F)c(-c5c(C)ccc6[nH]ncc56)c(C=C)cc34)CC2)C1` [Example 61, 1-(7-(2-(1-(2-(hydroxyethyl))piperidin-4-yl)-7-(5-methyl-1H-indazole-4-yl)-8-(2,2,2-trifluoroethoxy)-6-vinylquinazolin-4-yl)-2,7-diazarospiro [3.5]nonan-2-yl) propyl-2-en-1-one]: the results for the IC50 in the assay with MIA-PACA-2 cells and in the assay with H358 cells were 8 nM and 4.9 nM, respectively.
On the same counts, the results for `C=CC(=O)N1CC2(CCN(c3nc(C4CCN(C5CC6CCC(C5)N6C)CC4)nc4c(OCC(F)(F)F)c(-c5c(C)ccc6[nH]ncc56)c(C=C)cc34)CC2)C1` (centres unmarked) [Example 83, 1-(7-(7-(5-methyl-1H-indazole-4-yl)-2-(1-(8-methyl-8-azabicyclo [3.2.1]cindan-3-yl]piperidin-4-yl)8(2,2,2-trifluoroethoxy)-6-vinylquinazolin-4-yl)-2,7-diazspiro [3.5]nonan-2-yl) propyl-2-en-1-one] are 136 nM and 159 nM.
On the same counts, the results for `C=CC(=O)N1CC2(CCN(c3nc(C4CCN(C(C)CO)CC4)nc4c(OCC(F)(F)F)c(-c5c(C)ccc6[nH]ncc56)c(C=C)cc34)CC2)C1` (stereo not drawn) [Example 68, l-(7-(2-(l-(1-hydroxypropane-2-yl)piperidin-4-yl)-7-(5-methyl-1H-indazol-4-yl)-8-(2,2,2-trifluoroethoxy)-6-vinylquinazolin-4-yl)-2,7-diazspiro [3.5]nonan-2-yl) propyl-2-en-1-one] are 2.4 nM and 1.6 nM.
For the compound `C=CC(=O)N1CC2(CCN(c3nc(C4CN(C5CCCC5)C4)nc4c(OCC(F)(F)F)c(-c5c(C)ccc6[nH]ncc56)c(CC)cc34)CC2)C1` [Example 44, 1-(7-(2-(1-cyclopentyl-azacyclobutane-3-yl)-6-ethyl-7-(5-methyl-1H-indazole-4-yl)-8-(2,2,2-trifluoroethoxy)quinazolin-4-yl)-2,7-diazarospiro [3.5]nonan-2-yl) propyl-2-en-1-one], the IC50 stood at 169 nM in the assay on MIA-PACA-2 cells and 155 nM in the assay on H358 cells.
For the compound `C=CC(=O)N1CC2(CCN(c3nc(C4CCN(C)CC4)nc4c(OC5CCC5)c(-c5c(C)ccc6[nH]ncc56)c(CC)cc34)CC2)C1` [Example 26], the IC50 with MIA-PACA-2 cells was determined as 68.2 nM; in the assay with H358 cells, 24.9 nM.
For `C=CC(=O)N1CC2(CCN(c3nc(C4CCN(C5CCN(C6CC6)CC5)CC4)nc4c(OCC(F)(F)F)c(-c5c(C)ccc6[nH]ncc56)c(C=C)cc34)CC2)C1` [Example 74, 1-(7-(2-(1′-cyclopropyl-[1,4′-bipiperidine]-4-yl)-7-(5-methyl-1H-indazole-4-yl)-8-(2,2,2-trifluoroethoxy)-6-vinylquinazolin-4-yl)-2,7-diazspiro [3.5]nonan-2-yl) propyl-2-en-1-one], the IC50 in the assay with MIA-PACA-2 cells turned out to be 10.3 nM; in the assay on H358 cells, 6.7 nM.
`C=CC(=O)N1CC2(CCN(c3nc(C4CCN(C)CC4)nc4c(OCC)c(-c5c(C)ccc6[nH]ncc56)c(CC)cc34)CC2)C1` [Example 25]: the IC50 in the assay with MIA-PACA-2 cells was 32.6 nM; in the assay with H358 cells, 13 nM.
On to `C=CC(=O)N1CCC(c2nc(N3CCC4(CC3)CN(C(=O)C=C)C4)c3cc(C=C)c(-c4c(C)ccc5[nH]ncc45)c(OCC(F)(F)F)c3n2)CC1` [Example 64, 1-(4-(4-(2-acryloyl-2,7-diazazospiro [3.5]nonan-7-yl)-7-(5-methyl-1H-indazole-4-yl)-8-(2,2,2-trifluoroethoxy)-6-vinylquinazolin-2-yl)piperidin-1-yl) propyl-2-en-1-one], for which the IC50 with MIA-PACA-2 cells stood at 57.1 nM; in the assay with H358 cells, 16.6 nM.
Regarding `C=CC(=O)N1CC2(CCN(c3nc(C4CCN(C)CC4)nc4c(OCC5(C#N)CC5)c(-c5c(C)ccc6[nH]ncc56)c(C=C)cc34)CC2)C1` [Example 49], the values for the IC50 in the assay with MIA-PACA-2 cells and in the assay on H358 cells were 9.8 nM and 11.5 nM, respectively.
With `C=CC(=O)N1CC2(CCN(c3nc(C4CCN(C)CC4)nc4c(OC(C)C)c(-c5c(C)ccc6[nH]ncc56)c(CC)cc34)CC2)C1` [Example 27], the values for the IC50 in the assay on MIA-PACA-2 cells and in the assay on H358 cells were 388 nM and 392 nM, respectively.
Turning to `C=CC(=O)N1CC2(CCN(c3nc(C4CCN(C5CCN(C(C)=O)CC5)CC4)nc4c(OCC(F)(F)F)c(-c5c(C)ccc6[nH]ncc56)c(C=C)cc34)CC2)C1` [Example 72, 1-(7-(2-(1acetyl-[1,4'-bipiperidine]-4-yl)-7-(5-methyl-1H-indazole-4-yl)-8-(2,2,2-trifluoroethoxy)-6-vinylquinazolin-4-yl)-2,7-diazspiro [3.5]nonan-2-yl) propyl-2-en-1-one], the IC50 was determined as 5.9 nM in the assay with MIA-PACA-2 cells and 5.2 nM in the assay on H358 cells.
Turning to `C=CC(=O)N1CC2(CCN(c3nc(C4CN(CC(C)(C)O)C4)nc4c(OCC(F)(F)F)c(-c5c(C)ccc6[nH]ncc56)c(CC)cc34)CC2)C1` [Example 38, 1-(7-(6-ethyl-2-(1-(2-hydroxy-2-methylpropyl)azetidin-3-yl)-7-(5-methyl-1H-indazol-4-yl)-8-(2,2,2-trifluoroethoxy)quinazolin-4-yl)-2,7-diazaspiro[3.5]nonan 2-yl) prop-2-en-1-one], the IC50 was determined as 74.2 nM in the assay with MIA-PACA-2 cells and 59.3 nM in the assay on H358 cells.
For `C=CC(=O)N1CC2(CCN(c3nc(C4CCN(C)CC4)nc4c(OCC(F)(F)F)c(-c5c(C)ncc6[nH]ncc56)c(C=C)cc34)CC2)C1` [Example 56, 1-(7-(7-(5-methyl-1H-pyrazolo [3,4-c]pyridin-4-yl)-2-(1-methylpiperidine-4-yl)-8-(2,2,2-trifluoroethoxy)-6-vinylquinazolin-4-yl)-2,7-diazaspiro[3.5]nonan-2-yl) prop-2-en-1-one], in that order: 2580 nM and 2520 nM.
With `C=Cc1cc2c(N3CCC4(CC3)CN(C(=O)C(=C)F)C4)nc(C3CCN(C)CC3)nc2c(OCC(F)(F)F)c1-c1c(C)ccc2[nH]ncc12` [Example 84, 2-Fluoro-1-(7-(7-(5-methyl-1H-indazol-4-yl)-2-(1-methylpiperidin-4-yl)-8-(2,2,2-trifluoroethoxy)-6-vinylquinazolin-4-yl)-2,7-diazaspiro[3.5]nonan-2-yl)propan-2-en-1-one], the IC50 in the assay on MIA-PACA-2 cells came to 60.3 nM; with H358 cells it was 16.5 nM.
For `C=CC(=O)N1CC2(CCN(c3nc(C4CCN(C5CCC(O)CC5)CC4)nc4c(OCC(F)(F)F)c(-c5c(C)ccc6[nH]ncc56)c(C=C)cc34)CC2)C1` (centres unmarked) [Example 73], in that order: 24.1 nM and 24.3 nM.
In the case of `C=CC(=O)N1CCN(c2nc(C3CCN(C)CC3)nc3c(OCC(F)(F)F)c(-c4c(C)ccc5[nH]ncc45)c(C=C)cc23)[C@@H](C)C1` [Example 52, 1-((3S)-3-methyl-4-(7-(5-methyl-1H-indazole-4-yl)-2-(1-methylpiperidin-4-yl)-8-(2,2,2-trifluoroethoxy)-6-vinylquinazolin-4-yl)piperazin-1-yl) propyl-2-en-1-one], the IC50 in the assay on MIA-PACA-2 cells turned out to be 114 nM; in the assay on H358 cells, 104 nM.

A word on the IC50: it is the concentration needed to halve the response being measured.
